# Organism: Mus musculus
# Assay: Anticarcinoma activity of Diazomethyl Ketone against Ehrlich ascites Carcinoma pharmacological screens were reported; 7/8
# Assay type: functional
# Conditions: not given
row,SMILES,Survival after 10 days
1,Cc1ccc(S(=O)(=O)N2C(=O)CCC2C(=O)CCl)cc1 (stereo not given),7

# Tested on: not listed separately
# Assay: Screening of Ehrlich ascites carcinoma cells in mice at 20 mg/kg/day intraperitoneally.
# Assay type: functional, Mus musculus
# Conditions: route intraperitoneal
row,SMILES,ascrit
1,O=c1[nH]cc(F)c(=O)[nH]1 [FLUOROURACIL],32.4
2,C=COC(=O)C(Cc1ccc(O)cc1)NS(=O)(=O)c1ccc(C)cc1 (stereo not given),17.5
3,Cc1ccc(S(=O)(=O)N2CCC[C@H]2C(=O)C=[N+]=[N-])cc1,39.8
4,Cc1ccc(S(=O)(=O)NC(C(=O)C=[N+]=[N-])C(C)C)cc1 (stereo not given),52.7
5,Cc1ccc(S(=O)(=O)N2C(=O)CCC2C(=O)CCl)cc1 (stereo not given),31
6,Cc1ccc(S(=O)(=O)NC(C(=O)CCl)C(C)C)cc1 (stereo not given),46.9
7,Cc1ccc(S(=O)(=O)N2C(=O)CCC2C(=O)C=[N+]=N)cc1 (stereo not given),32
8,Cc1ccc(S(=O)(=O)NCC(=O)C=[N+]=[N-])cc1,56
9,Cc1ccc(S(=O)(=O)NCCC(=O)C=[N+]=[N-])cc1,44
10,N[C@@H](Cc1ccc(N(CCCl)CCCl)cc1)C(=O)O [MELPHALAN],0.1
11,N#CCOC(=O)C(Cc1ccc(O)cc1)NC(=O)OCc1ccccc1 (stereo not given),19.7
12,Cc1ccc(S(=O)(=O)NC(CC(C)C)C(=O)C=[N+]=[N-])cc1 (stereo not given),42.5

# Tested on: Mus musculus
# Assay: Screening of Ehrlich ascites carcinoma cells in mice at 20 mg/kg/day, intraperitoneally
# Assay type: functional
# Conditions: route intraperitoneal
row,SMILES,ascrit
1,Sc1ncnc2nc[nH]c12 [MERCAPTOPURINE ANHYDROUS],0.7

# Organism: Mus musculus
# Assay: Volume of ascrit fluid collected 8 days after tumor transplantation in mice
# Assay type: functional
# Conditions: not given
row,SMILES,Volume of ascrit fluid
1,Cc1ccc(S(=O)(=O)NC(C(=O)CCl)C(C)C)cc1 (stereo not given),0.63

# Organism: Mus musculus
# Assay: Volume of fluid collected 8 days after tumor transplantation in mice.
# Assay type: functional
# Set-up: unit not given beside the values
# Conditions: not given
row,SMILES,Volume of ascrit fluid
1,O=c1[nH]cc(F)c(=O)[nH]1 [FLUOROURACIL],0.98
2,C=COC(=O)C(Cc1ccc(O)cc1)NS(=O)(=O)c1ccc(C)cc1 (stereo not given),4.92
3,Cc1ccc(S(=O)(=O)N2CCC[C@H]2C(=O)C=[N+]=[N-])cc1,0.63
4,Cc1ccc(S(=O)(=O)NC(C(=O)C=[N+]=[N-])C(C)C)cc1 (stereo not given),0.93
5,Cc1ccc(S(=O)(=O)N2C(=O)CCC2C(=O)CCl)cc1 (stereo not given),0.95
6,Cc1ccc(S(=O)(=O)N2C(=O)CCC2C(=O)C=[N+]=N)cc1 (stereo not given),0.6
7,Cc1ccc(S(=O)(=O)NCC(=O)C=[N+]=[N-])cc1,0.03
8,Cc1ccc(S(=O)(=O)NCCC(=O)C=[N+]=[N-])cc1,1.66
9,N[C@@H](Cc1ccc(N(CCCl)CCCl)cc1)C(=O)O [MELPHALAN],3
10,N#CCOC(=O)C(Cc1ccc(O)cc1)NC(=O)OCc1ccccc1 (stereo not given),10.82
11,Cc1ccc(S(=O)(=O)NC(CC(C)C)C(=O)C=[N+]=[N-])cc1 (stereo not given),0.63
12,Sc1ncnc2nc[nH]c12 [MERCAPTOPURINE ANHYDROUS],0.3

# Organism: Mus musculus
# Assay: Percentage inhibition as antitumor activity in carcinoma CF1 male mice.
# Assay type: functional
# Set-up: concentration or dose not given beside the values
# Conditions: not given
row,SMILES,Inhibition
1,O=c1[nH]cc(F)c(=O)[nH]1 [FLUOROURACIL],0%
2,C=COC(=O)C(Cc1ccc(O)cc1)NS(=O)(=O)c1ccc(C)cc1 (stereo not given),75%
3,Cc1ccc(S(=O)(=O)N2CCC[C@H]2C(=O)C=[N+]=[N-])cc1,92.7%
4,Cc1ccc(S(=O)(=O)NC(C(=O)C=[N+]=[N-])C(C)C)cc1 (stereo not given),85.5%
5,Cc1ccc(S(=O)(=O)N2C(=O)CCC2C(=O)CCl)cc1 (stereo not given),91.4%
6,Cc1ccc(S(=O)(=O)NC(C(=O)CCl)C(C)C)cc1 (stereo not given),91.4%
7,Cc1ccc(S(=O)(=O)N2C(=O)CCC2C(=O)C=[N+]=N)cc1 (stereo not given),94.4%
8,Cc1ccc(S(=O)(=O)NCC(=O)C=[N+]=[N-])cc1,99.5%
9,Cc1ccc(S(=O)(=O)NCCC(=O)C=[N+]=[N-])cc1,78.8%
10,N[C@@H](Cc1ccc(N(CCCl)CCCl)cc1)C(=O)O [MELPHALAN],99.9%
11,N#CCOC(=O)C(Cc1ccc(O)cc1)NC(=O)OCc1ccccc1 (stereo not given),38%
12,Cc1ccc(S(=O)(=O)NC(CC(C)C)C(=O)C=[N+]=[N-])cc1 (stereo not given),92.2%
13,Sc1ncnc2nc[nH]c12 [MERCAPTOPURINE ANHYDROUS],99.9%

# Organism: Mus musculus
# Assay: Anticarcinoma activity of Diazomethyl Ketone against Ehrlich ascites Carcinoma pharmacological screens were reported; 6/6
# Assay type: functional
# Conditions: not given
row,SMILES,Survival after 10 days
1,C=COC(=O)C(Cc1ccc(O)cc1)NS(=O)(=O)c1ccc(C)cc1 (stereo not given),6
2,Cc1ccc(S(=O)(=O)N2CCC[C@H]2C(=O)C=[N+]=[N-])cc1,6
3,Cc1ccc(S(=O)(=O)NC(C(=O)C=[N+]=[N-])C(C)C)cc1 (stereo not given),6
4,Cc1ccc(S(=O)(=O)NC(C(=O)CCl)C(C)C)cc1 (stereo not given),6
5,Cc1ccc(S(=O)(=O)N2C(=O)CCC2C(=O)C=[N+]=N)cc1 (stereo not given),6
6,Cc1ccc(S(=O)(=O)NCC(=O)C=[N+]=[N-])cc1,6
7,Cc1ccc(S(=O)(=O)NCCC(=O)C=[N+]=[N-])cc1,6
8,N[C@@H](Cc1ccc(N(CCCl)CCCl)cc1)C(=O)O [MELPHALAN],6
9,N#CCOC(=O)C(Cc1ccc(O)cc1)NC(=O)OCc1ccccc1 (stereo not given),6
10,Cc1ccc(S(=O)(=O)NC(CC(C)C)C(=O)C=[N+]=[N-])cc1 (stereo not given),6
11,Sc1ncnc2nc[nH]c12 [MERCAPTOPURINE ANHYDROUS],6

# Organism: Mus musculus
# Assay: Anticarcinoma activity of Diazomethyl Ketone against Ehrlich ascites Carcinoma pharmacological screens were reported; 12/12
# Assay type: functional
# Conditions: not given
row,SMILES,Survival after 10 days
1,O=c1[nH]cc(F)c(=O)[nH]1 [FLUOROURACIL],12

# Tested on: P388
# Assay: Survival of the mice for average number of days; expressed as average survival days
# Assay type: functional, Mus musculus
# Conditions: not given
row,SMILES,Survival
1,O=c1[nH]cc(F)c(=O)[nH]1 [FLUOROURACIL],9.66 days
2,Cc1ccc(S(=O)(=O)N2C(=O)CCC2C(=O)CCl)cc1 (stereo not given),12.8 days
3,Cc1ccc(S(=O)(=O)NCCC(=O)C=[N+]=[N-])cc1,11.5 days
4,Cc1ccc(S(=O)(=O)NC(CC(C)C)C(=O)C=[N+]=[N-])cc1 (stereo not given),12.1 days

# Tested on: P388
# Assay: T/C expresses antileukemic activity measured as tested over that of control
# Assay type: functional, Mus musculus
# Conditions: not given
row,SMILES,T/C
1,O=c1[nH]cc(F)c(=O)[nH]1 [FLUOROURACIL],100

# Tested on: P388
# Assay: T/C expresses antileukemic activity measured as tested over that of control.
# Assay type: functional, Mus musculus
# Conditions: not given
row,SMILES,T/C
1,Cc1ccc(S(=O)(=O)NCCC(=O)C=[N+]=[N-])cc1,119

# Tested on: P388
# Assay: T/C expresses antileukemic activity measured as tested over that of control; T/C >/= 120 for significant activity
# Assay type: functional, Mus musculus
# Conditions: not given
row,SMILES,T/C
1,Cc1ccc(S(=O)(=O)N2C(=O)CCC2C(=O)CCl)cc1 (stereo not given),133
2,Cc1ccc(S(=O)(=O)NC(CC(C)C)C(=O)C=[N+]=[N-])cc1 (stereo not given),125
